According to patent US11076595B2, “1-(n,n-disubstituted carbamoyl) 4-(substituted sulfonyl)triazolin-5-one derivative, 4-(n,n-disubstituted carbamoyl) 1-(substituted sulfonyl)triazolin-5-one derivative, and herbicide containing said derivative as active ingredient” (HOKKO CHEMICAL INDUSTRY CO., LTD., priority 2017, dated 2021):

What was measured:
Format in all cases: in vivo
Monochoria vaginalis [1] = assay: Test Example 11: herbicidal effect test by soil treatment in paddy field; settings: 120 g/10a active ingredient, 14 days after treatment
In short: (§1)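 Pre-emergence flooded-paddy test: the water-diluted emulsifiable concentrate, 120 g active ingredient per 10 are, was dripped into pots immediately after seeding, with water held at about 3 cm. Two replicate pots per rate; 14 days after treatment, plant dry weight versus untreated pots gave the weed suppression rate.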

Lindernia pyxidaria [2] = assay: as above; settings: 120 g/10a active ingredient, 14 days after treatment
In short: as §1

Scirpus juncoides [3] = assay: as above; settings: 120 g/10a active ingredient, 14 days after treatment
In short: as §1

Echinochloa crus-galli [4] = assay: as above; settings: 120 g/10a active ingredient, 14 days after treatment
In short: as §1

Monochoria vaginalis [5] = assay: Test Example 12: herbicidal effect test by treatment during growing period in paddy field; settings: 120 g/10a; treatment seven days after sowing in flooded paddy pot; assessed 14 days after treatment
In short: (§2)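 Weed suppression (%) = (1 − treated/untreated mean dry weight) × 100, scored 14 days after treatment with two replicates per plot. Dose 120 g a.i. per 10 are, as diluted emulsifiable concentrate added dropwise to flooded pots (water about 3 cm) 7 days post-sowing, seeds at 0-1 cm.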

Lindernia pyxidaria [6] = assay: as above; settings: 120 g/10a; treatment seven days after sowing in flooded paddy pot; assessed 14 days after treatment
In short: as §2

Scirpus juncoides [7] = assay: as above; settings: 120 g/10a; treatment seven days after sowing in flooded paddy pot; assessed 14 days after treatment
In short: as §2

Echinochloa crus-galli [8] = assay: as above; settings: 120 g/10a; treatment seven days after sowing in flooded paddy pot; assessed 14 days after treatment
In short: as §2

Amaranthus viridis = assay: Test Example 14: herbicidal effect test by foliage treatment in upland field; settings: 7 days after sowing, 120 g/10a, 14 days after treatment
Procedure: (§3) This test was performed with two replications per one formulation concentration plot, and 14 days after the formulation treatments, the weed suppression rate (%) was determined according to the following equation (Math. 2). Weed suppression rate (%)=(1−average dry weight (g) of plants in treated plots/average dry weight (g) of plants in untreated plots)×100 [Math. 2]
(§4) A pot having a size of 36 cm^2 was filled with field soil (alluvial soil) and after uniformly mixing the soil of the surface layer of 1 cm with 20 grains of each weed seed of crabgrass, Echinochloa crus-galli, Chenopodium album and Amaranthus viridis, the surface layer was pressed lightly. Seven Days after the sowing, an emulsifiable concentrate prepared according to Formulation Example 15 by using the compound shown in Table 12 below was diluted with water, and the water-diluted formulation was sprayed on the soil surface at a ratio of 100 liter per 10 are. The application rate of the active ingredient, by conversion, corresponded to 120 g per 10 are. Fourteen Days after the formulation treatment, the herbicidal effect was evaluated by the same criteria as in Test Example 11.

Echinochloa crus-galli [9] = assay: as above; settings: 7 days after sowing, 120 g/10a, 14 days after treatment
Procedure: as §3, §4

Chenopodium album = assay: as above; settings: 7 days after sowing, 120 g/10a, 14 days after treatment
Procedure: as §4

crabgrass = assay: as above; settings: 7 days after sowing, 120 g/10a, 14 days after treatment
Procedure: as §4

Row | Structure (SMILES) | Weed suppression rate (%) Monochoria vaginalis (Monochoria vaginalis [1]) [%] | Weed suppression rate (%) Lindemia pyxidaria (Lindernia pyxidaria [2]) [%] | Weed suppression rate (%) Scirpus juncoides (Scirpus juncoides [3]) [%] | Weed suppression rate (%) Echinochloa crus-galli (Echinochloa crus-galli [4]) [%] | Weed suppression rate (%) Monochoria vaginalis (Monochoria vaginalis [5]) [%] | Weed suppression rate (%) Lindemia pyxidaria (Lindernia pyxidaria [6]) [%] | Weed suppression rate (%) Scirpus juncoides (Scirpus juncoides [7]) [%] | Weed suppression rate (%) Echinochloa crus-galli (Echinochloa crus-galli [8]) [%] | herbicidal effect, Amaranthus viridis (Amaranthus viridis) [%] | herbicidal effect, Echinochloa crus-galli (Echinochloa crus-galli [9]) [%] | herbicidal effect, Chenopodium album (Chenopodium album) [%] | herbicidal effect, Crabgrass (crabgrass) [%]
1 | CC(C)N(C(=O)n1cnn(S(C)(=O)=O)c1=O)c1c(F)c(F)cc(F)c1F [Compound 11-17] | 80 | 90 | 100 | 100 | 100 | 70 | 100 | 100 | 100 | 70 | 30 | 60
2 | CC(C)N(C(=O)n1cnn(S(=O)(=O)C(C)C)c1=O)c1ccccc1F [Compound 11-49] | 80 | 80 | 90 | 90 | 90 | 90 | 90 | 100 | 90 | 80 | 80 | 90
3 | CC(C)N(C(=O)n1cnn(S(=O)(=O)C(C)C)c1=O)c1ccc(Cl)cc1F [Compound 11-67] | 90 | 90 | 90 | 100 | 90 | 90 | 90 | 100 | 60 | 90 | 60 | 90
4 | CC(C)N(C(=O)n1cnn(S(=O)(=O)C(C)C)c1=O)c1ccc(Cl)cc1Br [Compound 11-71] | 70 | 90 | 100 | 100 | 70 | 70 | 100 | 100 | 60 | 100 | 70 | 100
5 | Cc1cc(Cl)ccc1N(C(=O)n1cnn(S(=O)(=O)C(C)C)c1=O)C(C)C [Compound 11-74] | 80 | 80 | 90 | 90 | 80 | 80 | 90 | 90 | 90 | 80 | 80 | 90
6 | CC(C)N(C(=O)n1cnn(S(=O)(=O)C2CCCCC2)c1=O)c1ccc(C(F)(F)F)cc1F [Compound 11-311] | – | – | – | – | – | – | – | – | 60 | 90 | 30 | 100
7 | CCN(CC)S(=O)(=O)n1ncn(C(=O)N(c2ccc(F)cc2F)C(C)C)c1=O [Compound 11-1099] | – | – | – | – | – | – | – | – | 90 | 80 | 80 | 90
8 | CN(C(=O)n1cnn(S(C)(=O)=O)c1=O)c1ccc(F)cc1F [Compound 11-1125] | 60 | 60 | 60 | 90 | 60 | 70 | 30 | 90 | – | – | – | –
9 | CCS(=O)(=O)n1ncn(C(=O)N(C)c2ccc(F)cc2F)c1=O [Compound 11-1126] | 70 | 90 | 100 | 100 | 70 | 70 | 100 | 100 | – | – | – | –
10 | CC(C)S(=O)(=O)n1ncn(C(=O)N(C)c2ccc(F)cc2F)c1=O [Compound 11-1127] | 70 | 80 | 80 | 100 | 70 | 70 | 100 | 100 | – | – | – | –
11 | Cc1ccc(S(=O)(=O)n2ncn(C(=O)N(C)c3ccc(F)cc3F)c2=O)cc1 [Compound 11-1131] | 70 | 100 | 100 | 100 | 90 | 70 | 80 | 100 | – | – | – | –
12 | CN(C(=O)n1cnn(S(=O)(=O)c2ccc(F)cc2)c1=O)c1ccc(F)cc1F [Compound 11-1137] | 80 | 90 | 100 | 100 | 80 | 70 | 100 | 100 | – | – | – | –
13 | Cc1cc(C)c(S(=O)(=O)n2ncn(C(=O)N(C)c3ccc(F)cc3F)c2=O)c(C)c1 [Compound 11-1140] | 90 | 100 | 100 | 100 | 90 | 80 | 100 | 100 | – | – | – | –
14 | CN(C(=O)n1cnn(S(=O)(=O)c2cccs2)c1=O)c1ccc(F)cc1F [Compound 11-1147] | 70 | 100 | 70 | 100 | 90 | 70 | 100 | 100 | – | – | – | –
15 | COc1ccc(S(=O)(=O)n2ncn(C(=O)N(c3c(F)cccc3F)C(C)C)c2=O)cc1 [Compound 11-1151] | 70 | 100 | 80 | 100 | 90 | 80 | 90 | 100 | – | – | – | –
16 | COc1ccc(S(=O)(=O)n2ncn(C(=O)N(c3ccc(F)c(F)c3F)C(C)C)c2=O)cc1 [Compound 11-1153] | 90 | 100 | 60 | 100 | 100 | 70 | 90 | 100 | – | – | – | –
17 | O=C(N(CC(F)(F)F)c1ccc(F)cc1F)n1cnn(S(=O)(=O)C2CCCCC2)c1=O [Compound 11-1156] | 30 | 80 | 30 | 70 | 60 | 90 | 30 | 90 | – | – | – | –
